# Reference: patent publication US20240425478A1, “CYCLOPENTYLPYRAZOLE CDK2 INHIBITORS” (Genentech, Inc., priority 2021, published 2024)
# Like-named read-outs stand apart in the source and are kept apart here.
# Experiments:
# [1] = target: T1, Cyclin Dependent Kinase 2/Cyclin E1 (CDK2-cycE1) (Homo sapiens, UniProt P24941); assay: CDK2-cycE1 TR-FRET (LANCE) enzyme assay; type: biochemical; conditions: for FS CDK1/CDK2 / FS CDK4/CDK2: fold selectivity; for CDK2 Ki fold change in potency versus Comparator D / CDK2 Ki fold change in potency versus Comparator E: in brackets after CDK2 Ki; for increased fold-selectivity CDK4/CDK2 over Comparator C: (+) sign after FS CDK4/CDK2;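 on improvement in potency against CDK2 (Ki) over Comparator C: fold lower CDK2 Ki than comparator c (Ki 0.032 µM)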
# T1 construct: purchased ProQinase 0050-0055-1
# Procedure, shortened: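 Compound dose responses pre-incubated 30 min with CDK2-cycE1 in 50 mM HEPES pH 7.5, 10 mM MgCl2, 2 mM TCEP, 0.05% BGG, 0.01% Brij 35. Reaction quenched with EDTA (15 mM final), phospho-MBP detected by Eu-anti-phospho-MBP TR-FRET (acceptor/donor ratio). Inhibition constants from Morrison equation.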
# SKOV-3 (ATCC HTB-77) = assay: SKOV-3 EdU incorporation cell proliferation assay (CDK4/6-dependent); type: cell-based; conditions: for IC50: Homo sapiens, cellular assay, read-out: CDK4/6 SKOV-3 IC50; for FS SKOV-3/OVISE: fold selectivity, cellular IC50 ratio
# Procedure, shortened: (§1)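 Cells in RPMI/10% FBS dosed with compound (0.5% DMSO final) for 16 h at 37 °C, 5% CO2, then EdU 0.5 μM final for 8 h before fixation and imaging. IC50 from 4-parameter logistic fit of EdU-positive cell fraction versus dose.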
# [2] = target: T2, Cyclin Dependent Kinase 1/Cyclin A2 (CDK1-cycA2) (Homo sapiens, UniProt P06493); assay: CDK1-cycA2 TR-FRET (Lance) enzyme assay; type: biochemical; conditions: for Ki: Table O, enzymatic assay; for FS CDK1/CDK2: fold selectivity, enzymatic Ki ratio
# T2 construct: purchased ProQinase 0134-0054-1
# Procedure, shortened: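 Human CDK1/cyclin A2 pre-incubated 30 min with compound dose responses in 50 mM HEPES pH 7.5, 10 mM MgCl2, 2 mM TCEP, 0.05% BGG, 0.01% Brij 35. Reaction quenched with EDTA (15 mM final); TR-FRET readout using Eu-anti-phospho-4E-BP1, acceptor/donor ratio. Inhibition constants from Morrison equation.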
# [3] = system: OVISE (JCRB1043, CCNE1-amplified); assay: OVISE EdU incorporation cell proliferation assay (CDK2-dependent); type: cell-based; conditions: for IC50: cellular assay, read-out: CDK2 OVISE IC50; for FS SKOV-3/OVISE / FS p-H3/OVISE: fold selectivity; for FS p-H3/OVISE: cellular p-H3 IC50 over OVISE IC50; for CDK2 OVISE IC50 fold change in potency versus Comparator D: Table R; for CDK2 OVISE IC50 fold change in potency versus Comparator D / CDK2 OVISE IC50 fold change in potency versus Comparator E / improvement in CDK2 OVISE cell potency over Comparator C: in brackets after OVISE IC50; for CDK2 OVISE IC50 fold change in potency versus Comparator E: Table S; for increased fold-selectivity SKOV-3/OVISE over Comparator C: (+) sign after FS SKOV-3/OVISE; for improvement in CDK2 OVISE cell potency over Comparator C: Comparator C 5.5 μM
# Procedure, shortened: as §1
# [4] = target: T3, Cyclin Dependent Kinase 4/Cyclin D3 (CDK4-cycD3) (Homo sapiens, UniProt P11802); assay: CDK4-cycD3 TR-FRET (LANCE) enzyme assay; type: biochemical; conditions: for Ki: Table O, enzymatic assay; for FS CDK4/CDK2: fold selectivity, enzymatic Ki ratio
# T3 construct: purchased Carna Biosciences 04-105
# Procedure, shortened: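 Compound dose responses pre-incubated 30 min with enzyme mix in 50 mM HEPES pH 7.5, 10 mM MgCl2, 2 mM TCEP, 0.05% BGG, 0.01% Brij 35. Reaction quenched with EDTA (15 mM final); Eu-anti-phospho-4E-BP1 TR-FRET detection, acceptor/donor ratio. Ki derived by Morrison equation.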
# HCT116 cells = assay: p-H3 HCT-116 mitotic release cell proliferation assay (cellular CDK1); type: cell-based; conditions: Homo sapiens, HCT-116; Table O, cellular assay; read-out: CDK1 p-H3 IC50
# Procedure, shortened: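 HCT116 cells arrested 16 h with 500 nM nocodazole, then exposed to compound for 4 h at 37 °C (0.1% DMSO). Lysates read by HTRF/FRET with donor and acceptor phospho-Histone H3 (Ser10) antibodies, ≥2 h at room temperature; CDK1 inhibition seen as loss of p-H3 on mitotic release.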
# [5] = Table O, enzymatic assay, read-out: CDK2 Ki
# [6] = Table O, enzymatic CDK1 Ki over CDK2 Ki
# [7] = Table O, enzymatic CDK4 Ki over CDK2 Ki
# [8] = Table R, enzymatic assay, read-out: CDK2 Ki
# [9] = Table S, enzymatic assay, read-out: CDK2 Ki
# [10] = Table O, cellular SKOV-3 IC50 over OVISE IC50
# [11] = Table Q, enzymatic assay, read-out: CDK2 Ki
# T3 sequence (P11802 whole entry): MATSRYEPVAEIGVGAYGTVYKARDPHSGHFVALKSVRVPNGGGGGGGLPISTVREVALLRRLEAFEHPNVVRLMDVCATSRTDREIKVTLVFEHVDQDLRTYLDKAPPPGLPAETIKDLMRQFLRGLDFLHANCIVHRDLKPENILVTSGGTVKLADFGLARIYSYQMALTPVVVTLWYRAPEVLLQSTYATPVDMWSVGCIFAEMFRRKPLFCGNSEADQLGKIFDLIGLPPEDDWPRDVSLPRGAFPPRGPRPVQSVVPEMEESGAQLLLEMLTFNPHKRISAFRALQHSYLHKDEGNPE
# T3 sequence (P30281 whole entry partner): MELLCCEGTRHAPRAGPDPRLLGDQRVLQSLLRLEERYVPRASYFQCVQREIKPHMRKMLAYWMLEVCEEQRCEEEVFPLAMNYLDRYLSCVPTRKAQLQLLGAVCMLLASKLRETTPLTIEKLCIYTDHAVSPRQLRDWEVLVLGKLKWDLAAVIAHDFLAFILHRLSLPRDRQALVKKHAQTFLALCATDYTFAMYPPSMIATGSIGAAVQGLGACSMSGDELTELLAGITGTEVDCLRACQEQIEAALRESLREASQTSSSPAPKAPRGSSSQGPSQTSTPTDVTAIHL
# T2 sequence (P06493 whole entry): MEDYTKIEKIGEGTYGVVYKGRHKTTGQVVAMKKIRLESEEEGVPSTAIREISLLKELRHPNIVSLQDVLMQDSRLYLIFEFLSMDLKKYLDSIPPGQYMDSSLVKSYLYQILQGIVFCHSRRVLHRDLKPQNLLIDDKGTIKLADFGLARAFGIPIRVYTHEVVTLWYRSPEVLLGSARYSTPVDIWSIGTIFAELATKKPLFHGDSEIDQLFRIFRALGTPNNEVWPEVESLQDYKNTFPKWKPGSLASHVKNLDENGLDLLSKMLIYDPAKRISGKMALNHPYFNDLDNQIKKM
# T2 sequence (P20248 whole entry partner): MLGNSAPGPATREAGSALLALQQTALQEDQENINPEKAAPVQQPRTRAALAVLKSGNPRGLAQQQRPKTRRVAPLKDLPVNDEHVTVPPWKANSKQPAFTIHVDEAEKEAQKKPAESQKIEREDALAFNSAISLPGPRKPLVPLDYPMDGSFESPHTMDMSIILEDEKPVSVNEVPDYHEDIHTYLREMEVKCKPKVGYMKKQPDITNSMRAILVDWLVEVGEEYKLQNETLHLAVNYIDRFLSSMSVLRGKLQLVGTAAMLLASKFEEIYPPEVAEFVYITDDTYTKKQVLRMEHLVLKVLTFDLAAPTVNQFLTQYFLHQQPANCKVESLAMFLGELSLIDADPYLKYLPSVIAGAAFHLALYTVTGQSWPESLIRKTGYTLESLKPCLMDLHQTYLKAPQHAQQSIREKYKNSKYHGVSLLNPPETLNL
SMILES,"Ki [1, 5] [nM]","FS CDK1/CDK2 [1, 6]","FS CDK4/CDK2 [1, 7]","Ki [1, 8] [nM]",CDK2 Ki fold change in potency versus Comparator D ([1]; Table R) [fold],"Ki [1, 9] [nM]",CDK2 Ki fold change in potency versus Comparator E ([1]; Table S) [fold],"IC50 (SKOV-3 (ATCC HTB-77); SK-OV-3, Table O) [nM]","FS SKOV-3/OVISE increased over Comparator D, (+) sign (SKOV-3 (ATCC HTB-77); Table R)",FS SKOV-3/OVISE (SKOV-3 (ATCC HTB-77); Table R),FS SKOV-3/OVISE (SKOV-3 (ATCC HTB-77); Table S),Ki [2] [nM],"FS CDK1/CDK2 increased over Comparator D, (+) sign ([2]; Table R)",FS CDK1/CDK2 ([2]; Table R),FS CDK1/CDK2 ([2]; Table S),IC50 ([3]; Table O) [nM],"FS SKOV-3/OVISE [3, 10]",FS p-H3/OVISE ([3]; Table O),Ki [4] [nM],IC50 (HCT116 cells) [nM],other results
"Cc1ccc(Nc2cc([C@H]3CC[C@@H](OC(=O)NC(C)(C)C)C3)[nH]n2)cn1 [Example 4B, (1R,3S)-3-(3-((6-methylpyridin-3-yl)amino)-1H-pyrazol-5-yl)cyclopentyl tert-butylcarbamate]",0.52,38,37,0.52,5.2,0.52,1,390,(+),12,12,20,(+),38,38,33,12,0.70,19,23,"Ki ([1]; read-out: CDK2 activity / potency (enzymatic assay)): ≤ 1 nM; CDK2 OVISE IC50 fold change in potency versus Comparator D [3]: 115 fold; CDK2 OVISE IC50 fold change in potency versus Comparator E [3]: 5.2 fold; FS CDK4/CDK2 increased over Comparator D, (+) sign ([4]; Table R): (+); FS CDK4/CDK2 ([4]; Table R): 37; FS CDK4/CDK2 ([4]; Table S): 37"
"CC(C)(C)NC(=O)O[C@@H]1CC[C@H](c2cc(Nc3ncccn3)n[nH]2)C1 [Example 4J, (1R,3S)-3-(3-(pyrimidin-2-ylamino)-1H-pyrazol-5-yl)cyclopentyl tert-butylcarbamate]",2.5,68,4.4,2.5,1.1,2.5,0.2,1200,(+),3.8,3.8,170,(+),68,68,320,3.8,1.1,11,360,"IC50 (SKOV-3 (ATCC HTB-77); SK-OV-3, Table R): 1200 nM; IC50 (SKOV-3 (ATCC HTB-77); SK-OV-3, Table S): 1200 nM; FS CDK1/CDK2 increased over Comparator E, (+) sign ([2]; Table S): (+); CDK2 OVISE IC50 fold change in potency versus Comparator D [3]: 12 fold; CDK2 OVISE IC50 fold change in potency versus Comparator E [3]: 0.5 fold; FS CDK4/CDK2 increased over Comparator D, (+) sign ([4]; Table R): (+); FS CDK4/CDK2 ([4]; Table R): 4.4; FS CDK4/CDK2 ([4]; Table S): 4.4"
"CC(CC(F)(F)F)NC(=O)O[C@@H]1CC[C@H](c2cc(Nc3ccc(=O)n(C)n3)n[nH]2)C1 (stereo partly drawn) [Example 6D, (1R,3S)-3-(3-((1-methyl-6-oxo-1,6-dihydropyridazin-3-yl)amino)-1H-pyrazol-5-yl)cyclopentyl (4,4,4-trifluorobutan-2-yl)carbamate]",0.21,17,290,–,–,–,–,4300,–,–,–,3.6,–,–,–,77,56,0.94,61,72,–
"Cc1cncc(Nc2cc([C@H]3CC[C@@H](OC(=O)NC(C)C)C3)[nH]n2)c1 [Example 2K, (1R,3S)-3-(3-((5-methylpyridin-3-yl)amino)-1H-pyrazol-5-yl)cyclopentyl isopropylcarbamate]",3.2,18,110,–,–,–,–,7700,–,–,–,59,–,–,–,190,41,0.46,340,87,"improvement in potency against CDK2 (Ki) over Comparator C [1]: 10 fold; increased fold-selectivity CDK4/CDK2 over Comparator C ([1]; Table Q): (+) (The (+) sign in Table Q signifies desirable increased fold-selectivity of the exemplary compounds over Comparator C); Ki [1, 11]: 3.2 nM; FS CDK1/CDK2 ([1]; Table Q, enzymatic): 18; FS CDK4/CDK2 ([1]; Table Q, enzymatic): 110; IC50 (SKOV-3 (ATCC HTB-77); SK-OV-3, Table Q): 7700 nM; increased fold-selectivity SKOV-3/OVISE over Comparator C ([3]; Table Q): (+) (The (+) sign in Table Q signifies desirable increased fold-selectivity of the exemplary compounds over Comparator C); FS SKOV-3/OVISE ([3]; Table Q, cellular): 41; improvement in CDK2 OVISE cell potency over Comparator C ([3]; Table Q): 28.9 fold"
"CC(C)NC(=O)O[C@@H]1CC[C@H](c2cc(Nc3ccncn3)n[nH]2)C1 [Example 2C, (1R,3S)-3-(3-(pyrimidin-4-ylamino)-1H-pyrazol-5-yl)cyclopentyl isopropylcarbamate]",1.1,39,86,–,–,–,–,4100,–,–,–,43,–,–,–,110,37,0.47,95,52,"improvement in potency against CDK2 (Ki) over Comparator C [1]: 32 fold; increased fold-selectivity CDK1/CDK2 over Comparator C ([1]; Table Q, (+) sign after FS CDK1/CDK2): (+) (The (+) sign in Table Q signifies desirable increased fold-selectivity of the exemplary compounds over Comparator C); increased fold-selectivity CDK4/CDK2 over Comparator C ([1]; Table Q): (+) (The (+) sign in Table Q signifies desirable increased fold-selectivity of the exemplary compounds over Comparator C); Ki [1, 11]: 1.1 nM; FS CDK1/CDK2 ([1]; Table Q, enzymatic): 39; FS CDK4/CDK2 ([1]; Table Q, enzymatic): 86; IC50 (SKOV-3 (ATCC HTB-77); SK-OV-3, Table Q): 4100 nM; increased fold-selectivity SKOV-3/OVISE over Comparator C ([3]; Table Q): (+) (The (+) sign in Table Q signifies desirable increased fold-selectivity of the exemplary compounds over Comparator C); FS SKOV-3/OVISE ([3]; Table Q, cellular): 37; improvement in CDK2 OVISE cell potency over Comparator C ([3]; Table Q): 50 fold"
"CNC(=O)c1ccnc(Nc2cc([C@H]3CC[C@@H](OC(=O)NC(C)(C)C)C3)[nH]n2)c1 [Example 4F, (1R,3S)-3-(3-((4-(methylcarbamoyl)pyridin-2-yl)amino)-1H-pyrazol-5-yl)cyclopentyl tert-butylcarbamate]",2.5,21,15,2.5,1.1,2.5,0.2,1700,(+),8.9,8.9,52,(+),21,21,190,8.9,0.35,37,66,"IC50 (SKOV-3 (ATCC HTB-77); SK-OV-3, Table R): 1700 nM; IC50 (SKOV-3 (ATCC HTB-77); SK-OV-3, Table S): 1700 nM; CDK2 OVISE IC50 fold change in potency versus Comparator D [3]: 20 fold; CDK2 OVISE IC50 fold change in potency versus Comparator E [3]: 0.9 fold; FS CDK4/CDK2 increased over Comparator D, (+) sign ([4]; Table R): (+); FS CDK4/CDK2 ([4]; Table R): 15; FS CDK4/CDK2 ([4]; Table S): 15"
"O=C(NC12CC(C1)C2)O[C@@H]1CC[C@H](c2cc(Nc3ccc(N4CCOCC4)nc3)n[nH]2)C1 [Example 9K, (1R,3S)-3-(3-((6-morpholinopyridin-3-yl)amino)-1H-pyrazol-5-yl)cyclopentyl bicyclo[1.1.1]pentan-1-ylcarbamate]",5.6,7.3,12,–,–,–,–,710,–,–,–,41,–,–,–,190,3.7,0.26,67,49,–
